The text below walks through data of ChEMBL document CHEMBL1124916, “Neural networks applied to quantitative structure-activity relationship analysis” (1990).

Holding throughout (assay type): functional
Test [1] is filed under the species Mus musculus. Kind of test: Optimal Dose (OD) which cause maximum increase in the life span, after chronic injection at log (1/C).
The species named for test [2] is Mus musculus. Put plainly: Optimal Dose (OD) which cause maximum increase in the life span, after singular injection at log (1/C).
The species named for test [3] is Mus musculus. Kind of test: Minimum Effective Dose (MED) which cause 40% increase in life span, after chronic injection at log (1/C).
The species named for test [4] is Mus musculus. Put plainly: Minimum Effective Dose (MED) which cause 40% increase in life span, after singular injection at log (1/C).
Test [5] is described as follows: Compound was evaluated for the Anti-fighting behavior. On the set-up: scale not given here.
Test [6] can be described thus: Evaluation for the Anti-pentylenetetrazole effect. Also noted: unit not given here.

Values joined by “and” are separate entries in the source; they are usually repeats but may differ in a detail not shown here. Equal values may be shown once.

In the case of `CC1=C(N2CC2)C(=O)C(N2CC2)=C(N2CC2)C1=O`, the OD in the test listed under Mus musculus [1] worked out at 6.21; in the test listed under Mus musculus [2], 5.69. For the same compound, the MED is given as 6.77 in the test listed under Mus musculus [3] and 6.54 in the test filed under Mus musculus [4].

Regarding `CN(C)C(=O)OCCC1=C(N2CC2)C(=O)C(CCOC(=O)N(C)C)=C(N2CC2)C1=O`, the OD in the test listed under Mus musculus [1] amounted to 4.85; in the test filed under Mus musculus [2], 4.62. Further, the MED in the test filed under Mus musculus [3] is listed as 5.16. `CC1=C(N2CC2)C(=O)C(C)=C(N2CC2)C1=O`: the OD was 5.36 in the test filed under Mus musculus [1] and 4.79 in the test listed under Mus musculus [2]. Further, the MED in the test filed under Mus musculus [3] amounted to 5.66; in the test listed under Mus musculus [4], 5.36. Regarding `O=C1CN=C(c2ccccc2)c2cc(C(F)(F)F)ccc2N1`, in test [5], the Anti-fighting behaviour is 4.48. Moreover, in test [6], the Anti-pent effect came out at 5.48. In test [6], `CN(C)CCCN1C(=O)CN=C(c2ccccc2)c2cc(Cl)ccc21` showed an Anti-pent effect of 3.38. `CN1C(=O)CN=C(c2ccccc2Cl)c2cc(Cl)ccc21` displayed an Anti-fighting behaviour in test [5] of 4.5. The compound also registered an Anti-pent effect in test [6] of 6.03.

Consider `COC(CO)C1=C(N2CC2)C(=O)C(C)=C(N2CC2)C1=O` (stereo not drawn), for which the figures for the OD in the test listed under Mus musculus [1] and in the test filed under Mus musculus [2] were 5.75 and 5.27, respectively. The MED in the test listed under Mus musculus [3] was 6.9; in the test filed under Mus musculus [4], 6.05. With `CC(=O)OCCC1=C(N2CC2)C(=O)C(C)=C(N2CC2)C1=O`, the OD in the test listed under Mus musculus [1] stood at 5.78. The compound further came in with an MED in the test listed under Mus musculus [3] of 5.78. In test [5], `CNC(=O)CN1C(=O)CN=C(c2ccccc2)c2cc([N+](=O)[O-])ccc21` yielded an Anti-fighting behaviour of 4.55. Further, the Anti-pent effect in test [6] came out at 5.29.

Compound `O=C1CN=C(c2ccccc2F)c2cc(Cl)ccc2N1` had an Anti-fighting behaviour in test [5] of 4.76. This compound gave an Anti-pent effect in test [6] of 6.46.

`O=C1CN=C(c2ccccc2Cl)c2cc(Cl)ccc2N1` yielded an Anti-fighting behaviour in test [5] of 5.18. Moreover, the Anti-pent effect in test [6] amounted to 5.85. In test [5], `CSc1ccc2c(c1)C(c1ccccc1)=NCC(=O)N2` gave an Anti-fighting behaviour of 4.15. In addition, the Anti-pent effect in test [6] amounted to 4.15. In the case of `NN1C(=O)CN=C(c2ccccc2)c2cc([N+](=O)[O-])ccc21`, the Anti-fighting behaviour in test [5] turned out to be 5.17. The same compound came in with an Anti-pent effect in test [6] of 5.77. `CCN(CC)CCN1C(=O)CN=C(c2ccccc2)c2cc(Cl)ccc21`: in test [5], the Anti-fighting behaviour was determined as 3.57. Moreover, in test [6], the Anti-pent effect turned out to be 5.06. Regarding `CC1=C(N2CC2)C(=O)C(CCOC(=O)N(C)C)=C(N2CC2)C1=O`, the OD in the test listed under Mus musculus [2] was determined as 4.84. In the test listed under Mus musculus [4], the MED worked out at 5.09. The compound `CCC(C)CN1C(=O)CN=C(c2ccccc2)c2cc(Cl)ccc21` (stereo not drawn) gave an Anti-fighting behaviour in test [5] of 3.53. The compound further showed an Anti-pent effect in test [6] of 4.99. The corresponding values for `O=C1CN=C(c2ccccc2)c2cc([N+](=O)[O-])ccc2N1` are 4.75 and 5.6. In the case of `CCCCSc1ccc2c(c1)C(c1ccccc1)=NCC(=O)N2`, the Anti-pent effect in test [6] came out at 3.79. `O=C1CN=C(c2ccccc2[N+](=O)[O-])c2cc([N+](=O)[O-])ccc2N1` registered an Anti-fighting behaviour in test [5] of 3.91. Also, the Anti-pent effect in test [6] worked out at 5.97. In the test filed under Mus musculus [1], `CC1=C(N2CC2)C(=O)C(CCCC2=C(N3CC3)C(=O)C(C)=C(N3CC3)C2=O)=C(N2CC2)C1=O` had an OD of 5.39. In addition, the MED in the test listed under Mus musculus [3] is on record as 5.82.

As for `CN1C(=O)CN=C(c2ccccc2F)c2cc([N+](=O)[O-])ccc21`, the Anti-fighting behaviour in test [5] worked out at 5.8. Besides, the Anti-pent effect in test [6] amounted to 6.5. For `CNC(=O)CN1C(=O)CN=C(c2ccccc2)c2cc(Cl)ccc21` the same measures were 3.63 and 5.83. The corresponding values for `CN(C)CCN1C(=O)CN=C(c2ccccc2)c2cc([N+](=O)[O-])ccc21` are 4.25 and 4.7. For `O=C1CN=C(c2ccccc2Cl)c2cc([N+](=O)[O-])ccc2N1` the same measures were 4.2 and 6.3.

In test [6], `O=C1CN=C(c2ccccc2)c2cc(Cl)ccc2N1` displayed an Anti-pent effect of 4.65. In the case of `CN1C(=O)CN=C(c2ccccc2F)c2cc(Cl)ccc21`, in test [5], the Anti-fighting behaviour came to 4.78. The compound further displayed an Anti-pent effect in test [6] of 5.88. The corresponding values for `CCC(C)CN1C(=O)CN=C(c2ccccc2)c2cc([N+](=O)[O-])ccc21` (stereo not drawn) are 3.77 and 4.8.

The compound `CCN1C(=O)CN=C(c2ccccc2)c2cc(Cl)ccc21` displayed an Anti-fighting behaviour in test [5] of 4.17. The Anti-pent effect in test [6] is 4.9. For `O=C1CN=C(c2ccccc2C(F)(F)F)c2cc(C(F)(F)F)ccc2N1` the same measures were 4.27 and 4.97. The compound `CC(=O)C1=C(N2CC2)C(=O)C(C)=C(N2CC2)C1=O` registered an OD in the test listed under Mus musculus [2] of 3.48. Besides, the MED in the test filed under Mus musculus [4] is recorded as 3.94. `C[S+]([O-])c1ccc2c(c1)C(c1ccccc1)=NCC(=O)N2` (stereo not drawn) registered an Anti-pent effect in test [6] of 4.08. `CN1C(=O)CN=C(c2ccccc2F)c2cc(F)ccc21` displayed an Anti-pent effect in test [6] of 3.33. `CN(C)CCN1C(=O)CN=C(c2ccccc2)c2cc(Cl)ccc21` gave an Anti-fighting behaviour in test [5] of 3.53. Besides, the Anti-pent effect in test [6] turned out to be 4.73. The corresponding values for `C=CCN1C(=O)CN=C(c2ccccc2)c2cc(Cl)ccc21` are 4.49 and 5.35. For `CN(C)c1ccc2c(c1)C(c1ccccc1)=NCC(=O)N2C` the same measures were 3.86 and 4.69. For `CNC(=O)CN1C(=O)CN=C(c2ccccc2)c2cc(C(F)(F)F)ccc21` the same measures were 3.69 and 5.06. Consider `CCN(CC)CCN1C(=O)CN=C(c2ccccc2F)c2cc(Cl)ccc21`, for which the Anti-fighting behaviour in test [5] is 4.29. In test [6], this compound showed an Anti-pent effect of 5.38. The corresponding values for `CN(C)CCCN1C(=O)CN=C(c2ccccc2F)c2cc(Cl)ccc21` are 3.97 and 4.76. For `COc1ccccc1C1=NCC(=O)Nc2ccc(Cl)cc21` the same measures were 3.48 and 4.6. The corresponding values for `CN(C)CCN1C(=O)CN=C(c2ccccc2)c2cc(C(F)(F)F)ccc21` are 4.27 and 4.76. For `CN(C)c1ccc2c(c1)C(c1ccccc1)=NCC(=O)N2`, in test [6], the Anti-pent effect came out at 3.84. As to `C=CCN1C(=O)CN=C(c2ccccc2)c2cc(C(F)(F)F)ccc21`, the Anti-fighting behaviour in test [5] stood at 4.54. This compound yielded an Anti-pent effect in test [6] of 5.03. The corresponding values for `CN(C)C(=O)CN1C(=O)CN=C(c2ccccc2)c2cc(Cl)ccc21` are 4.25 and 5.35. The corresponding values for `O=C1CN=C(c2ccccc2)c2cc(Br)ccc2N1` are 4.2 and 5.2. For `CN1C(=O)CN=C(c2ccccc2F)c2ccccc21` the same measures were 3.83 and 4.53.

Compound `O=C1CN=C(c2ccccc2)c2cc(Cl)ccc2N1CC1CC1` displayed an Anti-fighting behaviour in test [5] of 4.51. Further, the Anti-pent effect in test [6] worked out at 4.9. For `Cc1ccccc1C1=NCC(=O)Nc2ccc(Cl)cc21` the same measures were 3.45 and 4.57.

Turning to `N#Cc1ccc2c(c1)C(c1ccccc1F)=NCC(=O)N2`, the Anti-fighting behaviour in test [5] stood at 4.75. The Anti-pent effect in test [6] worked out at 5.63. The corresponding values for `N#Cc1ccc2c(c1)C(c1ccccc1)=NCC(=O)N2` are 3.81 and 5.3.

`O=C1CN=C(c2ccccc2)c2cc(F)ccc2N1` registered an Anti-fighting behaviour in test [5] of 3.4. Turning to `CN(C)CCCN1C(=O)CN=C(c2ccccc2)c2cc([N+](=O)[O-])ccc21`, the Anti-fighting behaviour in test [5] is 3.61 and 3.96. Also, in test [6], the Anti-pent effect was 5.82 and 4.28. For the compound `CN1C(=O)CN=C(c2ccccc2)c2cc(C#N)ccc21`, the Anti-fighting behaviour in test [5] came to 4.74. Further, in test [6], the Anti-pent effect was 5.44. The corresponding values for `O=C1CN=C(c2ccccc2)c2cc(Cl)ccc2N1CCCO` are 3.61 and 4.34. For `O=C1CN=C(c2ccccc2)c2cc(Cl)ccc2N1Cc1ccccc1` the same measures were 3.56 and 4.64. In turn, `O=C1CN=C(c2ccccc2)c2ccccc2N1` registered an Anti-fighting behaviour in test [5] of 3.37. Regarding `O=C1C(c2ccccc2)=C(N2CC2)C(=O)C(c2ccccc2)=C1N1CC1`, the OD is on record as 4.14 in the test filed under Mus musculus [1] and 3.53 in the test filed under Mus musculus [2]. The MED in the test listed under Mus musculus [3] amounted to 4.33. The compound `O=C1CN=C(c2ccccc2Br)c2cc(Cl)ccc2N1` returned an Anti-fighting behaviour in test [5] of 4.85. This compound displayed an Anti-pent effect in test [6] of 5.77.

As for `O=C1CN=C(c2ccccc2F)c2cc([N+](=O)[O-])ccc2N1`, the Anti-fighting behaviour in test [5] was found to be 5.17. Besides, the Anti-pent effect in test [6] amounted to 6. In test [5], `NC(=O)CN1C(=O)CN=C(c2ccccc2)c2cc(Cl)ccc21` had an Anti-fighting behaviour of 4.21. In test [6], this compound had an Anti-pent effect of 5.07. The corresponding values for `CN1C(=O)CN=C(c2ccccc2)c2cc(Cl)ccc21` are 4.45 and 5.31. For `CN1C(=O)CN=C(c2ccccc2C(F)(F)F)c2cc([N+](=O)[O-])ccc21` the same measures were 4.86 and 5.71.

Compound `CC(=O)CN1C(=O)CN=C(c2ccccc2)c2cc(Cl)ccc21` had an Anti-fighting behaviour in test [5] of 4.21. The compound further showed an Anti-pent effect in test [6] of 5.28. `CSc1ccc2c(c1)C(c1ccccc1)=NCC(=O)N2C` showed an Anti-fighting behaviour in test [5] of 3.87. In test [6], this compound came in with an Anti-pent effect of 3.6. On to `CCSc1ccc2c(c1)C(c1ccccc1)=NCC(=O)N2`, for which the Anti-pent effect in test [6] turned out to be 3.57. The compound `O=C1CN=C(c2ccccc2C(F)(F)F)c2cc([N+](=O)[O-])ccc2N1` displayed an Anti-fighting behaviour in test [5] of 4.54. The compound further yielded an Anti-pent effect in test [6] of 5.7. For `CN1C(=O)CN=C(c2ccccc2Cl)c2cc([N+](=O)[O-])ccc21` the same measures were 5.12 and 6.92.

`CN1C(=O)CN=C(c2ccccc2)c2cc([N+](=O)[O-])ccc21` came in with an Anti-fighting behaviour in test [5] of 5.07. The compound also came in with an Anti-pent effect in test [6] of 5.62.
